Patent US20230149401A1 (priority 2020, published 2023)
Read-outs that look alike come from different tables or passages of the source. Residues, ends and D or L forms follow the SMILES beside them.

Legend:
SARS-CoV-2 [1] = experiment: microbe, parasite or virus in culture; type: cell-based
TMPRSS2 [2] = target: T1, TMPRSS2 (Homo sapiens, UniProt O15393); settings: HeLa-ACE2 cells, 120 μM
Experimental: HeLa-ACE2 cells were transiently transfected with empty vector (V) or increasing cDNA ratios of V5-tagged WT spike protein to TMPRSS2 (spike-V5:TMPRSS2) as indicated and 24 h later incubated for an additional 24 h in serum-free media containing 120 μM Camostat (+) or control DMSO (−) (FIG. 12A). Immunoblot of the 24 h conditioned media (concentrated 10-fold) was first probed for S1 and S1′ using an antibody against S1-subunit (GTX135356), stripped and next probed for sACE2 (ab108252) and mature TMPRSS2m (14437-1-AP) (upper panel). Cell lysates were immunoblotted for spike protein (V5-mAb), ACE2 (ab108252) and β-Actin (lower panel). HeLa-ACE2 cells were transiently transfected for 48 h with empty vector (V), TMPRSS2, and V5-tagged spike protein (S) alone or in combination with TMPRSS2 (S+TMPRSS2) in a ratio of 1:0.7 (FIG. 12B). For each condition, 1 ml of 24h serum free conditioned media was immunoprecipitated with 2 μg goat polyclonal ACE2 antibody (AF933, R&D) and 60 μl TrueBlot anti-goat Ig IP beads (00-8844-25; Rockland) and analyzed by western blot first for S1 and S1′ (GTX135356) and next for sACE2 (rabbit MAB; ab108252) (upper right panels). For reference, 50% of the media before immunoprecipitation (concentrated 10-fold) (input) was similarly analyzed (upper left panels). Immunoblots of the cell lysates (spike protein: V5-mAb) are also shown (lower panels).
To confirm that S2a, and S2b are generated by TMPRSS2 activity in the ER, HeLa-ACE2 cells were incubated with 120 μM Camostat, known to inhibit TMPRSS2.

furin [3] = target: T2, furin (Homo sapiens, UniProt P09958); experiment: Biochemical PC-inhibition assay, substrate FAM-[…]-TAMRA; design: furin (108-574-Tev-Flag-6His); Tev site (C); Flag (C); 6His (C); made in house; host or cells: BacMam transduced CHO cells
Target sequence in this assay (P09958 108-574): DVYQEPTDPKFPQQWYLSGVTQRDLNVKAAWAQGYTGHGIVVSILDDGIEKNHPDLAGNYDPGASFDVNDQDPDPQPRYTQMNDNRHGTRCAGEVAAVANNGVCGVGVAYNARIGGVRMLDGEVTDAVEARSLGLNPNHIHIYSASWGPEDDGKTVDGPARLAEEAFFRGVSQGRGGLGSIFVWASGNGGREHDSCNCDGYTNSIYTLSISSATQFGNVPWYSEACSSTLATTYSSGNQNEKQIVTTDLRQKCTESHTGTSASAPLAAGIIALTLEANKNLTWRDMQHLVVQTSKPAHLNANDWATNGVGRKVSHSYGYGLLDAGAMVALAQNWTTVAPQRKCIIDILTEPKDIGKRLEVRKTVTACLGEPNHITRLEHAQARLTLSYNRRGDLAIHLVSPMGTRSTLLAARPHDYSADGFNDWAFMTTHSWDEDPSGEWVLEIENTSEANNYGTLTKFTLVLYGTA
Experimental: Biochemical assay: The proprotein convertases furin (108-574-Tev-Flag-6His), PC5A (PCSK5; 115-63-Tev-Flag-6His), PACE4 (PCSK6; 150-693-Tev-Flag-6His), and PC7 (PCSK7; 142-634-Tev-Flag-6His) enzymes were purified from BacMam transduced CHO cells. Reactions were performed in black 384-well polystyrene low volume plates (Greiner) at a final volume of 10 μL. […] The plates were centrifuged at 500×g for 1 minute and incubated at room temperature for two hours. Enzyme inhibition was then quantified using an Envision instrument (PerkinElmer). Data were normalized to maximal inhibition determined by 1 μM Decanoyl-Arg-Val-Lys-Arg-Chloromethylketone (Calbiochem #344930).

endogenous furin = target: T3, endogenous furin (Homo sapiens, UniProt P09958); experiment: Cell-based Golgi imaging assay of U2OS cells (BMP10-mimic cleavage)
T3 construct: the endogenous protease cleaves GFP from its N-acetylgalactosaminyltransferase-2 Golgi tether; endogenous in cells; host or cells: U2OS
Experimental: Biochemical assay: The proprotein convertases furin (108-574-Tev-Flag-6His), PC5A (PCSK5; […]-Tev-Flag-6His), PACE4 (PCSK6; 150-693-Tev-Flag-6His), and PC7 (PCSK7; 142-634-Tev-Flag-6His) enzymes were purified from BacMam transduced CHO cells. […] 0.05 μl of each concentration was transferred to the corresponding well of an assay plate, and then 5 μl of enzyme (furin, PCSK5, PCSK6, and PCSK7) in assay buffer (100 mM HEPES pH 7.5, 1 mM CaCl2) and 0.005% Triton X-100) was added using a Multidrop Combi (Thermo) to the compound plates to give a final protein concentration of 0.02, 0.5, 2.5, and 1.0 nM respectively. […] Enzyme inhibition was then quantified using an Envision instrument (PerkinElmer). Data were normalized to maximal inhibition determined by 1 μM Decanoyl-Arg-Val-Lys-Arg-Chloromethylketone (Calbiochem #344930). […]
Cellular assay: Analyses were initiated by the addition of U2OS cells simultaneously transduced with a BacMam-delivered construct containing a Golgi-targeting sequence followed by a 12-amino acid furin/PCSK cleavage site from Bone Morphogenic Protein 10 (BMP10) and then GFP at the C terminus. […] In the absence of a furin/PCSK inhibitor, the endogenous protease cleaves GFP from its N-acetylgalactosaminyltransferase-2 Golgi tether, releasing GFP into the Golgi lumen where fluorescence is diluted below the threshold of assay sensitivity. […]

PC5A (PCSK5) = target: T4, PC5A (PCSK5) (Homo sapiens, UniProt Q92824); experiment: Biochemical PC-inhibition assay, substrate FAM-[…]-TAMRA
T4 construct: fused on or other part: C-terminal Tev site, Flag tag and 6His tag
Experimental: (§1) Biochemical assay: The proprotein convertases furin (108-574-Tev-Flag-6His), PC5A (PCSK5; […]-Tev-Flag-6His), PACE4 (PCSK6; 150-693-Tev-Flag-6His), and PC7 (PCSK7; 142-634-Tev-Flag-6His) enzymes were purified from BacMam transduced CHO cells. […] 0.05 μl of each concentration was transferred to the corresponding well of an assay plate, and then 5 μl of enzyme (furin, PCSK5, PCSK6, and PCSK7) in assay buffer (100 mM HEPES pH 7.5, 1 mM CaCl2) and 0.005% Triton X-100) was added using a Multidrop Combi (Thermo) to the compound plates to give a final protein concentration of 0.02, 0.5, 2.5, and 1.0 nM respectively. The plates were mixed by inversion, and following a 30 min preincubation of enzyme with compound at room temperature (˜22° C.), the substrate FAM-[…] -TAMRA (AnaSpec #808143, 5 μl of a 1, 0.25, 0.20, and 0.5 μM solution in assay buffer for furin, PCSK5, PCSK6, and PCSK7 respectively) was added using a Multidrop Combi to the entire assay plate. The plates were centrifuged at 500×g for 1 minute and incubated at room temperature for two hours. Enzyme inhibition was then quantified using an Envision instrument (PerkinElmer). Data were normalized to maximal inhibition determined by 1 μM Decanoyl-Arg-Val-Lys-Arg-Chloromethylketone (Calbiochem #344930). Golgi imaging assay: This assay uses an image-based platform to evaluate the intracellular activity of furin inhibitors. Reactions were performed in black 384-well, tissue culture-treated, clear bottom plates (Greiner). Compounds under analysis were dissolved in DMSO (1.0 mM) and serially diluted 1 to 3 with DMSO through eleven dilutions. This creates a final compound concentration range from 0.00017 to 10 μM, and 0.1 μL of each concentration was transferred to the corresponding well of the assay plate.

PACE4 (PCSK6) = target: T5, PACE4 (PCSK6) (Homo sapiens, UniProt P29122); experiment: as above
T5 construct: PACE4 (PCSK6; 150-693-Tev-Flag-6His); Tev site (C); Flag (C); 6His (C); made in house; host or cells: BacMam transduced CHO cells
Experimental: as §1

PC7 (PCSK7) = target: T6, PC7 (PCSK7) (Homo sapiens, UniProt Q16549); experiment: as above
T6 construct: PC7 (PCSK7; 142-634-Tev-Flag-6His); Tev site (C); Flag (C); 6His (C); made in house; host or cells: BacMam transduced CHO cells
Experimental: as §1

[4] = tested on: endogenous furin-like enzymes; type: cell-based, human; settings: A549 cells; Compound 192/219 at 0.3, 1 or 10 μM, RVKR at 50 μM; 24 h
[5] = tested on: endogenous furin-like enzymes; type: cell-based; settings: HeLa-ACE2 cells
[6] = tested on: HeLa cells co-expressing the S-protein with ACE2; experiment: Immunocytochemistry of HeLa cells co-expressing S-protein and ACE2 (syncytia, localization); type: cell-based; settings: 1 μM
Experimental: Immunocytochemical analyses of HeLa cells co-expressing the S-protein or μS1/S2 with ACE2 in the absence or presence of 1 μM Compound 192 was also investigated under cell-permeabilization (P; V5 and ACE2 antibodies) and non-permeabilization (NP; S2 and ACE2 antibodies) conditions (FIGS. 14, 15). In the absence of Compound 192, the S-protein and ACE2 co-localized abundantly at the cell surface (FIG. 14-a). HeLa cells expressing both S-protein and ACE2 formed many syncytia, associated with reduced cell surface expression of the S-protein, and an even greater reduction of ACE2 (FIG. 14-b).
Cell culture and transfection were performed on glass coverslips. Cells were washed twice with PBS and fixed with fresh 4% paraformaldehyde for 10 min at room temperature. Following washes, cells were either non-permeabilized or permeabilized with 0.2% Triton X-100 in PBS containing 2% BSA for 5 min, washed, and then blocking was performed with PBS containing 2% BSA for 1 h. Cells were incubated with primary antibodies overnight at 4° C. using an antibody against V5 (mouse monoclonal R960-25; 1:1000; Invitrogen), Spike (mouse monoclonal GTX632604; 1:500; GeneTex) and ACE2 (goat polyclonal AF933; 1:500; RnDsystems). Following wash, corresponding species-specific Alexa-Fluor (488 or 555)-tagged antibodies (Molecular Probes) were incubated for 1 h at room temperature. […]

furin [7] = target: T2, furin; experiment: biochemical
Target sequence in this assay (P09958 108-794): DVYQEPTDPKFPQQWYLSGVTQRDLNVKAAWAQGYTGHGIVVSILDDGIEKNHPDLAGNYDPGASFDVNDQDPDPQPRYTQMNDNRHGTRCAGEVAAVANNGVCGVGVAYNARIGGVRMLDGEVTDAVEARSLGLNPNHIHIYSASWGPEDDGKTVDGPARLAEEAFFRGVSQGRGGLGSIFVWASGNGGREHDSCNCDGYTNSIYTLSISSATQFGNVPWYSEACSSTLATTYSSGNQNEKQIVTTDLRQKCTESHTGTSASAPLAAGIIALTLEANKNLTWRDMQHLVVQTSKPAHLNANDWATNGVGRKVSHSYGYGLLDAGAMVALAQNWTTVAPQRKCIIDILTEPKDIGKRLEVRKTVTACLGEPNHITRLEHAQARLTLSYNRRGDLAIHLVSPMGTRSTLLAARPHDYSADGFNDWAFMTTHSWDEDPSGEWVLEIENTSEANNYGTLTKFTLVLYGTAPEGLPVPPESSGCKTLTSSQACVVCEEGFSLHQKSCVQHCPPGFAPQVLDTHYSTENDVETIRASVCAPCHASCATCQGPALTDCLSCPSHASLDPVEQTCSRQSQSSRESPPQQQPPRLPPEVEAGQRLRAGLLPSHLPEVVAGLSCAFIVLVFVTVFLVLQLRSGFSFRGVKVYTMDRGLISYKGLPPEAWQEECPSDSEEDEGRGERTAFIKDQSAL
Experimental: Furin and TRMPSS2 fluorogenic assays: Recombinant furin was purchased from BioLegend (#719406), TRMPSS2 from Cusabio and the DABCYLGlu-EDANS labelled peptides encompassing the different cleavage sites (Supplementary Table 1) were purchased from Genscript. Reactions were performed at room temperature in black 384-well polystyrene low volume plates (CELLSTAR-Greiner Bio-One #784476) at a final volume of 15 μL. […] Cleavage of the synthetic peptides was quantitated by determining the increase of EDANS (493 nM) fluorescence following release of the DABCYL quencher, which is excited at 335 nM using a Safire 2 Tecan fluorimeter. The fluorescence was followed during 90 min, and the enzymatic activity was deduced by measurement of the increase of fluorescence during the linear phase of the reaction. Each reaction was performed in triplicate and the standard deviation was calculated using Excel-ecart type function

[8] = tested on: SARS-CoV-2 Spike ACE2-dependent cell-to-cell fusion; experiment: microbe, parasite or virus in culture; type: cell-based; settings: Severe acute respiratory syndrome coronavirus 2; 300 nM
[9] = tested on: endogenous furin-like enzymes; type: cell-based, Chinese hamster; settings: BHK21 cells; Compound 192/219 at 0.3, 1 or 10 μM, RVKR at 50 μM; 24 h
SARS-CoV-2 [10] = type: cell-based
TMPRSS2 [11] = target: T1, TMPRSS2; type: cell-based; design: expressed in transfected cells; host or cells: HeLa; settings: HeLa cells
[12] = tested on: endogenous furin-like enzymes; type: cell-based, African green monkey; settings: VeroE6 cells; Compound 192/219 at 0.3, 1 or 10 μM, RVKR at 50 μM; 24 h
[13] = tested on: HIV particles pseudotyped with SARS-CoV-2 S; type: cell-based

T1 sequence (O15393 whole entry): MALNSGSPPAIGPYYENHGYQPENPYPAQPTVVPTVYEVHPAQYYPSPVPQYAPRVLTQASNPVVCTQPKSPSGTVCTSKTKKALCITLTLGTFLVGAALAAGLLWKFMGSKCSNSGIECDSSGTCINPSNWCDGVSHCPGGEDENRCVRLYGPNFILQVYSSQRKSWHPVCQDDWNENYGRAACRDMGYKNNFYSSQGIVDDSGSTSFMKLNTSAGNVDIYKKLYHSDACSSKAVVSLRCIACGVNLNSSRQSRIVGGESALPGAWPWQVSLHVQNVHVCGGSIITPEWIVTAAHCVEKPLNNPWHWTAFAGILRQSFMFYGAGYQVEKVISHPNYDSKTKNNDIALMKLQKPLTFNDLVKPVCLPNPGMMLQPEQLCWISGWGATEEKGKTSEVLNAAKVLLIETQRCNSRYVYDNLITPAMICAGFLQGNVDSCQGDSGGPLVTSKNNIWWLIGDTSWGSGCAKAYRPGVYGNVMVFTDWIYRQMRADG
T6 sequence (Q16549 142-634): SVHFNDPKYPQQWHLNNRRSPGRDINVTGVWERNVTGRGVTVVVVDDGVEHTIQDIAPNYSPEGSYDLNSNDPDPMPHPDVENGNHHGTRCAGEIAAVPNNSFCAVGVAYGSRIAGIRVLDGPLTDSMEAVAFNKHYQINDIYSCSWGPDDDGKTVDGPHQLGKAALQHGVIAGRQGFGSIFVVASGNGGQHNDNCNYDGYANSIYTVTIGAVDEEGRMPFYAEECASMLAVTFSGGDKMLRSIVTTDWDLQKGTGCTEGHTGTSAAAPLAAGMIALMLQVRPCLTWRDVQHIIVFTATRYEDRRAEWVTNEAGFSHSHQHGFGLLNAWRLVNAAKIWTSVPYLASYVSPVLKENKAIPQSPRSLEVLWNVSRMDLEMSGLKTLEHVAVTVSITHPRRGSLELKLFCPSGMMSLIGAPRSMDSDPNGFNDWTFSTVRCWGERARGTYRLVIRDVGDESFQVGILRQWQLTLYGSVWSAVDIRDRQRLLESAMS
T5 sequence (P29122 150-693): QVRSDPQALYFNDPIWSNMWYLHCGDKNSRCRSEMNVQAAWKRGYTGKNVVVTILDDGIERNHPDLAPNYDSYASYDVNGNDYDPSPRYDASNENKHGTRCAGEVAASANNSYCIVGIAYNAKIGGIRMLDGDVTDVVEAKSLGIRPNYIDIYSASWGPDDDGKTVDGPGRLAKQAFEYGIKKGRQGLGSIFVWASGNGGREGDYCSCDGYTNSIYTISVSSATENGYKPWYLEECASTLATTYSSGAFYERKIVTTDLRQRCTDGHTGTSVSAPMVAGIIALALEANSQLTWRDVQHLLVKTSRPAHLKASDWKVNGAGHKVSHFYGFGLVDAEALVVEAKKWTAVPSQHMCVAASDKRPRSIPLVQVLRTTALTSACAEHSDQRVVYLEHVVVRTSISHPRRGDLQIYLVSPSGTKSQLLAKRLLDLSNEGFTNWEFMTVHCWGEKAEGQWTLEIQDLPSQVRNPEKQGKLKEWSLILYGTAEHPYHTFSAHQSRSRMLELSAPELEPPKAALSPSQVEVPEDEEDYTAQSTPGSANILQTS
T4 sequence (Q92824 115-601): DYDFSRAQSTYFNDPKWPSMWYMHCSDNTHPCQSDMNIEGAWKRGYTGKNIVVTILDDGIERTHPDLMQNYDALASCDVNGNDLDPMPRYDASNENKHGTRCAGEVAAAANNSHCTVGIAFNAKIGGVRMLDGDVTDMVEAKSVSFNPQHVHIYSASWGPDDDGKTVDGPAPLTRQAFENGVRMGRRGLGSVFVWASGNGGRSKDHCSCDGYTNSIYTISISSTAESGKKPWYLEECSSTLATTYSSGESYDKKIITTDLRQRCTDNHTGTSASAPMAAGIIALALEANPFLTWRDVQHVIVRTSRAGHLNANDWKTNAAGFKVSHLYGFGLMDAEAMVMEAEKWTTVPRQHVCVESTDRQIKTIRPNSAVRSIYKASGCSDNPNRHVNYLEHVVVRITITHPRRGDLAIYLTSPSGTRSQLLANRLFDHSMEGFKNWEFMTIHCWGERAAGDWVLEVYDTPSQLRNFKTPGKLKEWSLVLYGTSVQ
T3 sequence (P09958 108-794): as the sequence (P09958 108-794) above

SMILES | Viral replication, inhibitors individually (SARS-CoV-2 [1]) | IC50 (furin [3]) [nM] | IC50 (PC5A (PCSK5)) [nM] | IC50 (PACE4 (PCSK6)) [nM] | IC50 (PC7 (PCSK7)) [nM] | Antiviral effects and selectivity index relative to Compound 93 (SARS-CoV-2 [1]) | SARS-CoV-2 infection in Calu-3 cells (virus titers) (SARS-CoV-2 [1]) | Viral titers at 12, 24 and 48h post-infection (SARS-CoV-2 [1]) | Inhibition of processing of pro-(S) protein to active (S)-protein [4] | S1/S2 and S2′ processing by endogenous furin-like enzymes [5] | inhibition at 0.3 µM [8] [%] | Inhibition of processing of pro-(S) protein to active (S)-protein [9] | Virus production in infected Vero E6 cells (SARS-CoV-2 [10]) | Generation of S2a and S2b by TMPRSS2 (TMPRSS2 [11]) | Inhibition of processing of pro-(S) protein to active (S)-protein [12] | Viral entry in Calu-3 of pseudovirions packaged in presence of inhibitor [13] | further results
CN(C)C(=O)COC(=O)Cc1ccc(OC(=O)c2ccc(NC(=N)N)cc2)cc1 [Camostat] | meaningfully reduce viral replication | – | – | – | – | – | – | – | – | – | – | – | – | – | – | – | Generation of S1′ (TMPRSS2 [2]): in large part; Generation of sACE2 (TMPRSS2 [2]): inhibited; Formation of S2a and S2b (TMPRSS2 [2]; increasing TMPRSS2): prevented
CCCCCCCCCC(=O)N[C@@H](CCCNC(=N)N)C(=O)N[C@H](C(=O)N[C@@H](CCCCN)C(=O)N[C@@H](CCCNC(=N)N)C(=O)CCl)C(C)C [RVKR-cmk, Decanoyl-Arg-Val-Lys-Arg-CMK, reference compound] (HELM PEPTIDE1{[CCCCCCCCCC(=O)[*:2]].R.V.K.R.[ClC[*:1]]}$$$$V2.0) | – | ~9 | ~9 | ~9 | ~9 | – | – | – | – | – | – | – | – | – | – | – | IC50 (endogenous furin): 5 nM
CC(=O)NCC1CCN(Cc2cc(Oc3cnc(N4CCN(CCC(C)C(=O)O)CC4)nc3)nc(-c3cc(Cl)cc(Cl)c3)c2)CC1 (stereo not shown) [Compound 192, 4-(4-(5-((4-((4-(acetamidomethyl)piperidin-1-yl)methyl)-6-(3,5-dichloro-phenyl)pyridin-2-yl)oxy)pyrimidin-2-yl)piperazin-1-yl)-2-methylbutanoic acid] | meaningfully reduce viral replication | ~7 | ~7 | ~7 | ~7 | comparable | strongly reduce | significantly decreased | less inhibition | blocked | > 60 | Inhibition was observed | modestly reduce virus production | none of the compounds affected | somewhat | block viral entry | Inhibition of S1/S2 and S2′ processing ([5]; 300 nM): almost complete inhibition; Phenotype of S-expressing HeLa cells (syncytia, S and ACE2 localization) [6]: phenocopy those expressing μS1/S2; IC50 (furin [7]): 4 ± 0.7 nM
CC(=O)NCC1CCN(Cc2cc(Oc3ccc(N4CCN(CCC(=O)O)CC4)nc3)nc(-c3cc(Cl)cc(Cl)c3)c2)CC1 [Compound 219, 3-(4-(5-((4-((4-(acetamidomethyl)piperidin-1-yl)methyl)-6-(3,5-dichlorophenyl)pyridin-2-yl)oxy)pyridin-2-yl)piperazin-1-yl)propanoicacid] | – | ~7 | ~7 | ~7 | ~7 | comparable | strongly reduce | significantly decreased | less inhibition | blocked | > 60 | Inhibition was observed | modestly reduce virus production | none of the compounds affected | somewhat | block viral entry | –
